Values quoted from earlier work as cited in US7608126B1, “Method for horticulture plant rejuvenation” (priority 2006, dated 2009).

## C[C@]12CC[C@H](O)CC1=CC[C@@H]1[C@@H]2CC[C@]2(C)C(=O)CC[C@@H]12 [DHEA, dehydroepiandrosterone]
  solubility in water: not very soluble in water
